The subject of this assay is L-1 stage larvae of canine filariae (Dirofilaria immitis). Description: Impact evaluation test on larvae motility of canine filariae. Conditions: final concentration of 50 ppm, 3 days, corrected for DMSO solution alone.

Take `Clc1ccc(CCc2cn(-c3nc4ccccc4[nH]3)cn2)c(Cl)c1` [Compound 1-1, 2-(4-(2-(2,4-dichlorophenyl)ethyl)-1H-imidazol-1-yl)benzimidazole]: the “activity level (corrected motility impediment rate)” value is on record as “A (the corrected motility impediment rate is 100%)”.

The record behind these values is patent US20250002477A1, “BENZIMIDAZOLE COMPOUND OR SALT THEREOF, CANINE FILARIASIS CONTROL AGENT CONTAINING SAME, AND METHOD OF USE THEREOF” (NIHON NOHYAKU CO., LTD., priority 2021, published 2025).
